Source: US20190203253A1, “METHODS OF IDENTIFYING AND TREATING CANCER PATIENTS WITH AN EPHB6 DEFICIENCY” (University of Saskatchewan, priority 2016, published 2019)

Assays:
MDA-pc3 and MDA-B6 cells = assay: Cell death assays (propidium iodide and 7-AAD staining); format: cell-based, human; settings: MDA-pc3 vs MDA-B6, 25 nM, 72 h (FIGS. 5A, 5B)
Experimental: FIG. 5. Inhibition of SRC induces cell death more efficiently in EPHB6-deficient cells. A. MDA-pc3, and MDA-B6 cells were cultured in glass-bottom plates in the presence of 25 nM KX2-391 or DMSO for 72 h and stained with 2.7 μg/mL propidium iodide (PI) in phenol red-free medium. Stained cells were imaged at 200× magnification using Zeiss LSM 700 confocal microscope and PI-stained cells were counted in at least 10 randomly captured frames. Counts of PI-positive cells were normalized on the total cell numbers in matching frames. […] B. MDA-pc3 and MDA-B6 cells were cultured in 6-well plates in the presence of 25 nM KX2-391 or a matching volume of DMSO for 72 h. Cells were collected and stained for 7-AAD for 15 minutes at room temperature. Cells were analyzed by flow cytometry and the FlowJo software. […] All experiments were performed at least three times. Scale bar, 100 μm. *, P<0.05, Student's t-test.
For propidium iodide (PI) staining, MDA-MB-231 and BT-20 cells were incubated in glass-bottom plates (MatTek, Ashland, Mass., USA) for 72 h and 96 h, respectively, with KX2-391 and matching volumes of DMSO. […] The amount of PI-stained cells was analyzed by microscopy using a Zeiss Observer Z1 at 200× magnification. […] PI-stained cells were counted in at least 10 randomly captured frames, normalized on the total number of cells in matching frames and compared between DMSO controls and treated cells. […]

[1] = system: CD34-stained blood vessels in MDA-B6 and MDA-pc3 tumors; assay: Anti-CD34 immunohistochemistry of xenograft tumors (blood vessel density); format: in vivo, NOD-SCID mice; settings: KX2-391-treated MDA-B6 and MDA-pc3 tumors (FIG. 7B)
Experimental: FIG. 7. Analysis of the SL interaction between EPHB6 and SRC in TNBC cells and murine xenografts. A. MDA-pc3 and MDA-B6 cells were injected into the mammary fat pad region of 4-6 weeks old NOD-SCID mice (1×10^6 cells per mouse). Mice with detectable tumors were treated twice per day with 5 mg/kg KX2-391 in DMSO/water solvent or solvent alone by oral feeding (at least 6 animals per each experimental condition). Tumor size was measured every 3 days and tumor volume was calculated with the equation: A/2*B^2, where A was long and B was short diameter of the tumor. The reduction in tumor growth in KX2-391-treated mice is presented as a percentage relative to matching solvent controls. The graph summarizes two independent experiments. Day 0 indicates the beginning of treatment with KX2-391 or matching solvent control. […] Four representative fields (at 3, 6, 9, and 12 o'clock) per each stained tumor section (one for each extracted tumor) were imaged at 100× magnification and the blood vessel density per each field was analyzed with the Image-Pro Premier software. […]
For the immunohistochemical staining, tumors were dissected and fixed in 10% neutral- buffered formalin for 24-48 h. […] In each stained tumor section, 12, 3, 6 and 9 o'clock fields were imaged at 100× magnification and the density of stained blood vessels per field was quantified using the Image-Pro Premier software.

prostate cancer = settings: reference [26]; cited from earlier work

Which “induction of cell death (Propidium Iodide or 7-AAD staining)” value (MDA-pc3 and MDA-B6 cells) does the source give for `O=C(Cc1ccc(-c2ccc(OCCN3CCOCC3)cc2)cn1)NCc1ccccc1` [KX2-391] here?
The value was “more efficient in inducing cell death, when the EPHB6 receptor is not expressed”.

What about the “neovascularization (CD34 staining) of treated EPHB6-positive vs EPHB6-negative tumors” value [1] of the same compound?
The value was “has not shown any differences in neovascularization”.

And the “clinical effect in phase II trials for prostate cancer” value (prostate cancer)?
Its value is “relatively modest effect”.
